Data as given in patent US20090022803A1, “Oral Formulations For Delivery of Catecholic Butanes Including Ndga Compounds” (priority 2005, published 2009).
Like-named read-outs stand apart in the source and are kept apart here.

Format: physicochemical
Description: A 10 mL solution of M4N at a concentration of about 10 mg/mL in 40% BP-β-CD was made as follows. About 10 mL of the 40% HP-β-CD solution were added to a glass beaker containing a stir bar. The beaker was placed on a magnetic plate and the stir bar was set to stir at medium speed. About […] of M4N were slowly added to the 40% HP-β-CD in the center of the beaker with the aid of a spatula. The M4N/40% HP-β-CD mixture was stirred for 2 hr or until all M4N was uniformly suspended without any clumps being present. The M4N/40% HP-β-CD mixture was optionally heated at 80° C. for about 30 min. (or longer if a larger volume of solution was desired, for example, 1 hr at 80° C. for 100 mL of the M4N/HP-β-CD mixture), or longer as needed to ensure complete dissolution of M4N. […] The final M4N/40% HP-β-CD solution was stored at room temperature and was kept protected from light. This process may be scaled up or down to obtain the requisite volume or concentration of M4N. Formulations containing M4N in other cyclodextrin solutions may be similarly made, such as, for example, by substituting HP-β-CD in the process described above with other cyclodextrins. […]
A 10 mL solution of M4N at a concentration of about 10 mg/mL in 50% HP-β-CD/0.5% HPMC was made as follows. About 10 mL of the 50% HP-β-CD/0.5% HPMC solution were added to a glass beaker containing a stir bar. The beaker was placed on a magnetic plate and the stir bar was set to stir at medium speed. About 100 mg of M4N were slowly added to the 50% HP-β-CD/0.5% HPMC in the center of the beaker with the aid of a spatula. The M4N/50% HP-β-CD/0.5% HPMC mixture was stirred for 24 hr or until all M4N was uniformly suspended without any clumps being present. The M4N/50% HP-β-CD/0.5% HPMC mixture was heated at about 90° C. for about 30 min. (or longer if a larger volume of solution was desired, for example, 1 hr at 90° C. for 500 mL of the M4N/50% HP-β-CD/0.5% HPMC mixture), or longer as needed to ensure complete dissolution of M4N. […] The final M4N/50% HP-β-CD/0.5% HPMC solution was stored at room temperature and was kept protected from light.
A 10 mL solution of M4N at a concentration of about 20 mg/mL in 5% EC (w/v) (the “EC formulation”) was made as follows. About 10 mL of 5% EC formulation, made as described above, were added to a glass beaker containing a stir bar. The beaker was placed on a magnetic plate and the stir bar was set to stir at medium speed, and covered with a round Teflon® cover. About 200 mg of M4N were slowly added to the 5% EC formulation in the center of the beaker with the aid of a spatula to prevent M4N from sticking to the beaker wall. The M4N/EC mixture was stirred for 2 hr or until all M4N had dissolved or was uniformly suspended without any clumps being present. The M4N/EC mixture was heated at about 60° C. for about 30 min. (or longer if a larger volume of solution was desired, for example, 1 hr at 60° C. for 500 mL of the M4N/EC mixture), or longer as needed to ensure complete dissolution of M4N. […] The final M4N/EC solution was stored at room temperature and was kept protected from light.
A 10 mL solution of M4N at a concentration of about 50 mg/mL in sesame oil was made as follows. About 10 mL of sesame oil were added to a glass beaker containing a stir bar. The beaker was placed on a magnetic plate and the stir bar was set to stir at medium speed. About 500 mg of M4N were slowly added to the sesame oil in the center of the beaker with the aid of a spatula to prevent M4N from sticking to the beaker wall. The M4N/sesame oil mixture was stirred for about 2 hr or until all M4N had dissolved or was uniformly suspended without any clump being present. The M4N/sesame oil mixture was heated at about 60° C. for about 30 min. (or longer if a larger volume of solution was desired, for example, 1 hr at 60° C. for 500 mL of the M4N/sesame oil mixture), or longer as need to ensure complete dissolution of M4N. […]

COc1ccc(C[C@@H](C)[C@@H](C)Cc2ccc(OC)c(OC)c2)cc1OC [Formulation M4N, meso-1,4-bis(3,4-dimethoxyphenyl)-2,3-dimethylbutane]
powder: Dissolution After Rotation (M4N 150 mg/g in 84% HP-β-CD, 1% HPMC, Lyophilized) | Dissolution After Rotation (M4N 185 mg/g in 81.5% (w/w) HP-β-CD, Lyophilized)
Suspension: Dissolution After Rotation (M4N 60 mg/mL in 50% HP-β-CD, 0.5% CMC)
N at 80°: Dissolution After Heating at X° C. (M4N 100 mg/mL in 40% HP-β-CD, 80°)
N: Dissolution After Cool-Down (M4N 50 mg/mL in Soybean Oil) | Dissolution After Cool-Down (M4N 52 mg/mL in 40% Peppermint Oil, 40% PEG 400, 20% Glycerol) | Dissolution After Cool-Down (M4N 59 mg/mL in 45% Peppermint Oil, 45% PEG 400, 10% Glycerol) | Dissolution After Cool-Down (M4N 60 mg/mL in 60% Peppermint Oil, 40% PEG 400) | Dissolution After Cool-Down (M4N 60 mg/mL in 80% Olive Oil, 20% Soybean Oil) | Dissolution After Cool-Down (M4N 60 mg/mL in 85% Sesame Oil, 15% Tween ® 20) | Dissolution After Rotation (M4N 100 mg/mL in 2.3% HPMC) | Dissolution After Cool-Down (M4N 100 mg/mL in 5% EC in EtOH) | Dissolution After Rotation (M4N 100 mg/mL in 5% EC in EtOH) | Dissolution After Rotation (M4N 100 mg/mL in 15% α-CD) | Dissolution After Rotation (M4N 100 mg/mL in 30% HP-β-CD) | Dissolution After Rotation (M4N 100 mg/mL in 40% HP-β-CD) | Dissolution After Rotation (M4N 100 mg/mL in 50% HP-β-CD) | Dissolution After Cool-Down (M4N 100 mg/mL in 50% Peppermint Oil, 50% PEG 400) | Dissolution After Cool-Down (M4N 100 mg/mL in Corn Oil) | Dissolution After Cool-Down (M4N 100 mg/mL in Mineral Oil) | Dissolution After Cool-Down (M4N 125 mg/mL in 50% Peppermint Oil, 50% PEG 300) | Dissolution After Cool-Down (M4N 125 mg/mL in 50% Peppermint Oil, 50% PEG 400) | Dissolution After Cool-Down (M4N 125 mg/mL in 50% Peppermint Oil, 50% Tween ® 20) | Dissolution After Cool-Down (M4N 200 mg/mL in Mineral Oil) | Dissolution After Cool-Down (PEG 400 100%, M4N 100 mg/mL, after heating at 60° C.)
N at 90°: Dissolution After Heating at X° C. (M4N 100 mg/mL in 15% α-CD, 90°) | Dissolution After Heating at X° C. (M4N 100 mg/mL in 30% HP-β-CD, 90°) | Dissolution After Heating at X° C. (M4N 100 mg/mL in 50% HP-β-CD, 90°)
Y: Dissolution After Cool-Down (M4N 50 mg/mL in Corn Oil) | Dissolution After Cool-Down (M4N 50 mg/mL in Mineral Oil) | Dissolution After Cool-Down (M4N 50 mg/mL in Sesame Oil) | Dissolution After Cool-Down (M4N 60 mg/mL in 33% Peppermint Oil, 33% Tween ® 20, 33% PEG 400) | Dissolution After Cool-Down (M4N 60 mg/mL in 50% Peppermint Oil, 50% PEG 300) | Dissolution After Cool-Down (M4N 60 mg/mL in 50% Peppermint Oil, 50% PEG 400) | Dissolution After Cool-Down (M4N 60 mg/mL in 50% Peppermint Oil, 50% Sesame Oil) | Dissolution After Cool-Down (M4N 60 mg/mL in 50% Peppermint Oil, 50% Tween ® 20) | Dissolution After Cool-Down (M4N 60 mg/mL in 60% Peppermint Oil, 40% PEG 300) | Dissolution After Cool-Down (M4N 60 mg/mL in Corn Oil) | Dissolution After Cool-Down (M4N 60 mg/mL in Peppermint Oil) | Dissolution After Cool-Down (M4N 100 mg/mL in Peppermint Oil) | Dissolution After Cool-Down (M4N 125 mg/mL in Peppermint Oil) | Dissolution After Cool-Down (PEG 300 100%, M4N 25 mg/mL, after heating at 50° C.) | Dissolution After Cool-Down (PEG 400 100%, M4N 25 mg/mL, after heating at 50° C.) | Dissolution After Cool-Down (PEG 400 100%, M4N 30 mg/mL, after heating at 50° C.) | Dissolution After Cool-Down (PEG 400 100%, M4N 40 mg/mL, after heating at 50° C.) | Dissolution After Cool-Down (PEG 400 100%, M4N 50 mg/mL, after heating at 60° C.) | Dissolution After Cool-Down (PEG 400 mono-laurate 100%, M4N 20 mg/mL, after heating at 50° C.) | Dissolution After Cool-Down (PEG 400 mono-laurate 100%, M4N 50 mg/mL, after heating at 50° C.) | Dissolution After Cool-Down (Propylene Glycol 100% (w/v), M4N 1 mg/mL, after heating at 55° C.) | Dissolution After Cool-Down (Propylene Glycol 100% (w/v), M4N 10 mg/mL, after heating at 55° C.) | Dissolution After Cool-Down (Propylene Glycol 100% (w/v), M4N 20 mg/mL, after heating at 55° C.)
Creamy: Dissolution After Cool-Down (M4N 60 mg/mL in 0.4% (v/v) Cinnamaldehyde, 5% (w/v) Beeswax, 94.5% (v/v) Olive Oil, cell wraps: Creamy solid) | Dissolution After Cool-Down (M4N 100 mg/mL in Camillia Oil, cell wraps: Creamy solid) | Dissolution After Cool-Down (M4N 100 mg/mL in Eugenol, Beeswax, Olive Oil, 0.5% (v/v) Eugenol, cell wraps: Creamy solid)
waxy: Dissolution After Cool-Down (M4N 100 mg/g in 50% Soybean Oil, 50% Beeswax (w/w), cell wraps: waxy solid) | Dissolution After Cool-Down (M4N 200 mg/g in 75% Soybean Oil, 25% Beeswax (w/w), cell wraps: waxy solid) | Dissolution After Cool-Down (M4N 200 mg/g in 90% Olive Oil, 10% Beeswax (w/w), cell wraps: waxy solid) | Dissolution After Cool-Down (M4N 200 mg/g in 90% Soybean Oil, 10% Beeswax (w/w), cell wraps: waxy solid) | Dissolution After Cool-Down (M4N 200 mg/g in 95% Olive Oil, 5% Beeswax (w/w), cell wraps: waxy solid) | Dissolution After Cool-Down (M4N 200 mg/g in 95% Soybean Oil, 5% Beeswax (w/w), cell wraps: waxy solid)
